# According to patent US12213984B2, “Immunoregulatory agent” (KYUSHU UNIVERSITY, NATIONAL UNIVERSITY CORPORATION, priority 2015, dated 2025):
# pIC50: −log10 of the molar value.
# Assays:
# [1] = target: T1, protein composed of the lobe B and the lobe C of the DHR-2 domain of DOCK2 (Homo sapiens, UniProt Q92608); experiment: ELISA binding of steroid compounds to DHR-2 domain of DOCK2; details: steroid immobilized at 100 μg/ml, protein 2 μg/mL
# T1 construct: the HIS-SUMO tagged protein composed of the lobe B and the lobe C of the DHR-2 domain of DOCK2; made in house; host or cells: E. coli Arctic express DE3 (pET28a)
# T1 sequence (Q92608 1196-1622): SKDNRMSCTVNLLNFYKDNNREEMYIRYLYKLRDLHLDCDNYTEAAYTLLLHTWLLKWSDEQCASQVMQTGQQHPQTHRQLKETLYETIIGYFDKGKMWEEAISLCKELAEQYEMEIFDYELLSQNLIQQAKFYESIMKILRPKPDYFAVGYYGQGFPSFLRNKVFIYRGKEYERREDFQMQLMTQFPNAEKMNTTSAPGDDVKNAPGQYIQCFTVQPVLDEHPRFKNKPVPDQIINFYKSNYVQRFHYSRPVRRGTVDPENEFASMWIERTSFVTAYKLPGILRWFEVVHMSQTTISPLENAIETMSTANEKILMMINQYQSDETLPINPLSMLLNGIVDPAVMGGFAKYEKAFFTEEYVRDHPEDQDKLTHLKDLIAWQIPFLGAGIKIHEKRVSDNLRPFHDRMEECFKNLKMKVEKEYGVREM
# Description: First, various steroid compounds prepared at 100 μg/ml by using 100% methanol were added in an amount of 50 μL to a 96-well plate for ELISA (trade name “Immulon 4HBX”, Thermo Scientific) and immobilized for 1 hour in a clean bench by air drying. Subsequently, 5% bovine serum albumin (BSA) diluted with TBS (20 mM Tris-HCl-150 mM NaCl, pH 7.5) was added thereto in an amount of 180 μL, the steroid compounds were incubated for 6 hours at 4° C., and the wells were blocked. Thereafter, each of the wells was rinsed three times with 180 μL of PBS-0.01% Tween-20. […] Then, each of the wells was rinsed three times with 180 μL of PBS-0.01% Tween-20. Subsequently, horseradish peroxidase (HRP)-labeled histidine probe (Thermo Scientific) diluted 5,000× was added in an amount of 100 μL to each well, and allowed to incubate for 1.5 hours at room temperature. Thereafter, each of the wells was rinsed three times with 180 μL of PBS-0.01% Tween-20, a 3,3′,5,5′-tetramethyl benzidine (TMB) solution (Thermo Scientific) as an HRP chromogenic substrate was added in an amount of 100 μL to each well so as to initiate a chromogenic reaction, and a stop solution (0.16 M sulfuric acid, Thermo Scientific) was added in an amount of 100 μL to each well so as to stop the reaction. Then, the absorbance at a wavelength of 450 nm was measured.
# DOCK2 = target: T2, DOCK2 (Homo sapiens, UniProt Q92608); experiment: in-vitro GEF assay, Rac activation by DOCK2 (Experimental Example 1); assay type: biochemical
# T2 construct: polypeptide fragments corresponding to a DHR-2 domain including the lobe B and the lobe C of DOCK2; Histidine-SUMO (N); made in house; host or cells: E. coli Arctic express DE3 (pET28a); Rac in E. coli BL21 DE3 (pGEX-6P-1)
# T2 sequence (Q92608 1196-1622): T1 sequence (Q92608 1196-1622)
# Description: The selectivity of the effect of inhibiting the GEF of DOCK2 by cholesterol 3-sulfate was examined. All of DOCK2, Trio, and Tiam are GEFs activating Rac. In the presence of serially diluted cholesterol 3-sulfate, the Rac activation ability of a DOCK2 protein, a Trio protein, and a Tiam protein was measured by in-vitro GEF assay. For the in-vitro GEF assay, a labeled GTP (trade name, “Bodipy-FL-GTP”, manufactured by Invitrogen) was used, because it has a property of increasing fluorescence intensity when binds to Rac by the action of GEF. […]
# During the reaction, the change in the fluorescence intensity of Bodipy-FL-GPT was monitored using a spectrofluorometer Enspire manufactured by PerkinElmer Inc (excitation wavelength: 488 nm, emission wavelength: 514 nm). By calculation, the values obtained by the measurement were corrected such that the fluorescence intensity became 0 at a reaction starting point (0 second).
# Then, by using software (trade name “GraphPad Prism 5”, manufactured by GraphPad Software Inc.), an approximation curve was created which is obtained in a case where the calculated corrected values are plotted on the y-axis and time (t) is plotted on the x-axis. […]
# [2] = tested on: inflammatory cells infiltrating into the anterior chamber of eye; experiment: UV-induced photokeratitis in Sult2B1b gene knockout mice, eye drops; assay type: in vivo, mouse; details: eye drops before and after UV irradiation
# Excerpt: As a result of analyzing UV-induced photokeratitis in Sult2B1b gene heterozygous mice (+/−) and Sult2B1b gene knockout mice (−/−), atrophy of the corneal epithelial layer was comparably observed in both mice. Therefore, the eyeball section of each of the mice was subjected to hematoxylin-eosin (HE) staining and observed using an optical microscope. Thereafter, cholesterol 3-sulfate was applied to the eyes of the Sult2B1b gene knockout mouse (−/−) before and after UV irradiation, and the total number of inflammatory cells infiltrating the anterior chamber of eye was counted. As a control, mouse for whom only a vehicle was applied to its eyes was used.
# [3] = tested on: neutrophils derived from the mouse bone marrow; experiment: neutrophil migration assay 2 (EZ-TAXIScan, compound added to the fMLP source); assay type: cell-based; details: 150 μM added to well with 3 μM fMLP, no pretreatment
# Description: An examination was performed about the influence of cholesterol 3-sulfate on the migration speed of neutrophils when the cells and the chemical migration factor (fMLP) are added to the same well without pretreating the cells. […] Phase-contrast micrographs were obtained for 40 minutes at an interval of 30 seconds and analyzed by the same method as described above. (a) to (c) of FIG. 12 are graphs and photographs showing the experiment results.
smiles,measurement,setting,value
"CC(C)CCC[C@@H](C)[C@H]1CC[C@H]2[C@@H]3CC=C4C[C@@H](OS(=O)(=O)O)CC[C@]4(C)[C@H]3CC[C@]12C [C3S, cholesterol 3-sulfate]","binding to the protein composed of lobe B and lobe C of the DHR-2 domain of DOCK2 (ELISA, absorbance 450 nm)",[1],specifically binds
same,pIC50,DOCK2,5.17
same,UV irradiation-induced infiltration of inflammatory cells into the anterior chamber of eye,[2],inhibited
same,migration of neutrophils towards fMLP source containing the compound,[3],rapidly stop
